Test results: patent publication US9023821B2, “Use of MicroRNA for treating diseases associated with a dysfunction of the cilia in multiciliated epithelial cells” (Centre National de la Recherche Scientifique, priority 2009, dated 2015)

Columns and labels:
[1] = system: human airway epithelial cells (HAECs); experiment: Agilent miRNA chips, miRNA expression at four stages of differentiation of HAECs; conditions: for Modulation (ratio of the level of intensity of expression in log2 in two stages of differentiation) measured with the Agilent chips, D7 − D0 / Modulation (ratio of the level of intensity of expression in log2 in two stages of differentiation) measured with the Agilent chips, FC − D7 / Modulation (ratio of the level of intensity of expression in log2 in two stages of differentiation) measured with the Agilent chips, WD − D0 / Modulation (ratio of the level of intensity of expression in log2 in two stages of differentiation) measured with the Agilent chips, WD − FC / Level of intensity of expression in log2 measured with the Agilent chips, D0 / Level of intensity of expression in log2 measured with the Agilent chips, D7 / Level of intensity of expression in log2 measured with the Agilent chips, FC / Level of intensity of expression in log2 measured with the Agilent chips, WD: Table VI; for Modulation (ratio of the level of intensity of expression in log2 at two stages of differentiation), FC − D7 / Modulation (ratio of the level of intensity of expression in log2 at two stages of differentiation), WD − FC: Agilent miRNA chips, Table V; for Level of intensity of expression in log2 measured with the Agilent chips, D0: stage D0; for Level of intensity of expression in log2 measured with the Agilent chips, D7: stage D7; for Level of intensity of expression in log2 measured with the Agilent chips, FC: stage FC; for Level of intensity of expression in log2 measured with the Agilent chips, WD: stage WD
Source text: In parallel with the high-throughput sequencing of the microRNAs, the repertoire of expression of the microRNAs (microRNAome) is investigated using the technology of Agilent® microRNA chips. For this, RNA samples from the same patients as before were used, labeled and hybridized on Agilent® miRNA chips (Human miRNA Microarray v2, containing 866 human miRNAs and 89 human viral miRNAs, i.e. all the human miRNAs contained and referenced in Sanger miRBase v.12.0, Agilent Technologies, France) using the “miRNA labeling and hybridization” kit, following the supplier's instructions (Agilent Technologies).
The inventors then used the Agilent miRNA chips to investigate the repertoire of expression of the miRNAs of the human airway epithelium and compare the results obtained in high-throughput sequencing with those obtained with Agilent® commercial miRNA chips.

[2] = system: human airway epithelial cells (HAECs); experiment: High-throughput sequencing (HTS) of miRNAs at four stages of differentiation of HAECs; conditions: for Modulation (ratio of the level of intensity of expression in log2 in two stages of differentiation) measured by high-throughput sequencing, D7 − D0 / Modulation (ratio of the level of intensity of expression in log2 in two stages of differentiation) measured by high-throughput sequencing, FC − D7 / Modulation (ratio of the level of intensity of expression in log2 in two stages of differentiation) measured by high-throughput sequencing, WD − D0 / Modulation (ratio of the level of intensity of expression in log2 in two stages of differentiation) measured by high-throughput sequencing, WD − FC / Level of intensity of expression in log2 measured by high-throughput sequencing, D0 / Level of intensity of expression in log2 measured by high-throughput sequencing, D7 / Level of intensity of expression in log2 measured by high-throughput sequencing, FC / Level of intensity of expression in log2 measured by high-throughput sequencing, WD: Table VI; for Level of intensity of expression in log2 At the differentiated stage (WD) measured in HTS: healthy human airway epithelial tissue; for Level of intensity of expression in log2 measured by high-throughput sequencing, D0: stage D0; for Level of intensity of expression in log2 measured by high-throughput sequencing, D7: stage D7; for Level of intensity of expression in log2 measured by high-throughput sequencing, FC: stage FC; for Level of intensity of expression in log2 At the differentiated stage (WD) measured in HTS / Level of intensity of expression in log2 measured by high-throughput sequencing, WD: stage WD
Source text: The total RNAs were extracted from HAECs cultivated at the air-liquid interface at four stages of differentiation: ALI-D0 (0 day), ALI-D7 (7 days), ALI-FC (during appearance of the first cilia at about 14 days) and ALI-WD (wholly differentiated at about 21 days). The cells are lysed in reagent with Trizol® (Invitrogen). The total RNAs containing small RNAs and microRNAs are purified on Qiagen RNEasy columns (Qiagen) according to the supplier's instructions.
The total RNAs containing small RNAs and microRNAs are isolated as before. The procedure is based on the Applied Biosystems Ligase-Enhanced Genome Detection technology (LEGenD™); the SOLiD™ Small RNA Expression kit (Applied Biosystems, France) was used. With this method it is possible to convert the small RNAs of a sample into a library of double-stranded DNA; it was developed by Applied Biosystems SOLiD™ System for a new generation of high-throughput sequencing.
The high-throughput sequencing of the microRNAs was carried out according to the supplier's recommendations. Briefly, the total RNAs containing the small RNAs are hybridized (65° C., 10 min, then at 16° C., 5 min) and ligated (16° C., 2-16 h in a thermocycler) with the Adaptor Mix A for producing a matrix for sequencing the 5′ end of the small RNAs, or with the Adaptor Mix B for sequencing the 3′ end. The samples are then reverse-transcribed (42° C., 30 min) to synthesize the complementary DNA (cDNA). The library of small RNAs is amplified by PCR and after migration on polyacrylamide gel the amplified small RNAs are cut out and extracted from the gel according to their size (length of about 105-150 bases, according to the supplier's instructions), eluted and resuspended in nuclease-free water. The concentration of nucleic acids is then measured and normalized before proceeding with preparation of the samples for sequencing.
For each microRNA sequenced, the number of sequences of the 5p strand and of the 3p strand of the microRNA was normalized to 10^6 sequences and converted to percentage abundance of expression for each of the microRNAs. The data were then normalized according to a linear model and an empirical Bayesian method using software R. For subsequent analyses, only the microRNAs were retained for which the percentage expression (or abundance) is greater than 1% of the total of the microRNAs in at least one culture condition, with a |Log2 Ratio| below 0.5 and an adjusted P-value below 0.05.

[3] = system: basal cells and pyramidal cells of the airway epithelium; experiment: miRNA expression in sorted basal cells versus pyramidal cells (ciliated + secretory), HTS and Agilent chips; parameters: species or system human; conditions: for Modulation of expression of the miRNAs in pyramidal cells (323(−)) relative to basal cells 323(+): HTS and Agilent chips; for Intensity of the level of expression in log2 in pyramidal cells (323(−)): pyramidal cells (ciliated + secretory)
Protocol: After dissociation of the stroma of nasal polyps, the epithelial cells (about 20.10^6) are incubated in PBS-BSA-EDTA for 30 min and then incubated with labeled antibody CD151-PE and anti-TF (tissue factor)-FITC for 20 min, 4° C. (see Hajj, R. et al., Stem Cells 25, 139-148 (2007)). After washing twice, the cells are taken up in PBS-EDTA and incubated with DAPI for labeling the cells whose integrity has been altered.
Cell sorting was carried out on the FACSAria sorter (BD Biosciences) equipped with 3 lasers, blue, red and violet. Dead cells, aggregates and double cells were excluded. The doubly positive population of basal cells (CD151+/FT+) and the negative population of cylindrical cells (containing ciliated cells and mucus-secreting cells) (CD151−/FT−) were selected and sorted at a rate of 5000 events/s ([…]). The purity and identity of the sorted cells were then verified by cytometry and immunocytochemistry.
Like the native airway epithelium, the model of differentiation in vitro used in these tests consists of basal cells, ciliated cells and mucus-secreting cells. In order to identify the repertoires of the miRNAs specific to each of the cellular types, the inventors used cell sorting by flow cytometry by means of specific markers (Hajj, R. et al. 2007). Using this technique, adult airway progenitor cells (corresponding a priori to basal cells) were isolated, selected and sorted (such cells appear doubly positive for tetraspanin CD151 and for the tissue factor) from the pyramidal cells (i.e. ciliated cells and mucus-secreting cells) which appear negative for these same markers. These were purified from polyps or from nasal conchae obtained from 3 separate donors.
After extracting the total RNAs, the expression profiles of the miRNAs were established by means of Agilent® commercial chips or by high-throughput sequencing (HTS). […] For the first time, the inventors thus attribute a repertoire of expression of the miRNAs specifically to separate cellular types of the airway epithelium during differentiation.

For “hsa-let-7c: human miRNA, SEQ ID No. 159 (UGAGGUAGUAGGUUGUAUGGUU; expressed or natural sequence; listed as Homo sapiens)”, the “Modulation (ratio of the level of intensity of expression in log2 in two stages of differentiation) measured with the Agilent chips, D7 − D0” value [1] was 1.61 log2, the “Modulation (ratio of the level of intensity of expression in log2 at two stages of differentiation), FC − D7” value [1] was −0.71 log2 and the “Modulation (ratio of the level of intensity of expression in log2 in two stages of differentiation) measured with the Agilent chips, FC − D7” value [1] was −0.71 log2. For the same substance, the “Modulation (ratio of the level of intensity of expression in log2 in two stages of differentiation) measured with the Agilent chips, WD − D0” value [1] was 1.05 log2, the “Modulation (ratio of the level of intensity of expression in log2 at two stages of differentiation), WD − FC” value [1] was 0.14 log2 and the “Modulation (ratio of the level of intensity of expression in log2 in two stages of differentiation) measured with the Agilent chips, WD − FC” value [1] was 0.14 log2. For the same substance, the “Level of intensity of expression in log2 measured with the Agilent chips, D0” value [1] was 9.10 log2, the “Level of intensity of expression in log2 measured with the Agilent chips, D7” value [1] was 10.71 log2 and the “Level of intensity of expression in log2 measured with the Agilent chips, FC” value [1] was 10.00 log2. For the same substance, the “Level of intensity of expression in log2 measured with the Agilent chips, WD” value [1] was 10.15 log2, the “Modulation (ratio of the level of intensity of expression in log2 in two stages of differentiation) measured by high-throughput sequencing, D7 − D0” value [2] was 0.14 log2 and the “Modulation (ratio of the level of intensity of expression in log2 in two stages of differentiation) measured by high-throughput sequencing, FC − D7” value [2] was 0.21 log2. The “Modulation (ratio of the level of intensity of expression in log2 in two stages of differentiation) measured by high-throughput sequencing, WD − D0” value [2] was 0.90 log2, the “Modulation (ratio of the level of intensity of expression in log2 in two stages of differentiation) measured by high-throughput sequencing, WD − FC” value [2] was 0.55 log2 and the “Level of intensity of expression in log2 At the differentiated stage (WD) measured in HTS” value [2] was 7.86 log2. The “Level of intensity of expression in log2 measured by high-throughput sequencing, D0” value [2] was 6.96 log2, the “Level of intensity of expression in log2 measured by high-throughput sequencing, D7” value [2] was 7.10 log2 and the “Level of intensity of expression in log2 measured by high-throughput sequencing, FC” value [2] was 7.31 log2. For the same substance, the “Level of intensity of expression in log2 measured by high-throughput sequencing, WD” value [2] was 7.86 log2, the “Modulation of expression of the miRNAs in pyramidal cells (323(−)) relative to basal cells 323(+)” value [3] was −0.48 and the “Intensity of the level of expression in log2 in basal cells (323(+))” value [3] was 9.43 log2. For the same substance, the “Intensity of the level of expression in log2 in pyramidal cells (323(−))” value [3] was 8.95 log2.
In the case of “hsa-let-7e: human miRNA, SEQ ID No. 160 (UGAGGUAGGAGGUUGUAUAGUU; expressed or natural sequence; listed as Homo sapiens)”, the “Modulation (ratio of the level of intensity of expression in log2 in two stages of differentiation) measured with the Agilent chips, D7 − D0” value [1] is reported as 1.38 log2, the “Modulation (ratio of the level of intensity of expression in log2 at two stages of differentiation), FC − D7” value [1] is reported as −0.57 log2 and the “Modulation (ratio of the level of intensity of expression in log2 in two stages of differentiation) measured with the Agilent chips, FC − D7” value [1] is reported as −0.57 log2. For the same substance, the “Modulation (ratio of the level of intensity of expression in log2 in two stages of differentiation) measured with the Agilent chips, WD − D0” value [1] was 0.95 log2, the “Modulation (ratio of the level of intensity of expression in log2 at two stages of differentiation), WD − FC” value [1] was 0.15 log2 and the “Modulation (ratio of the level of intensity of expression in log2 in two stages of differentiation) measured with the Agilent chips, WD − FC” value [1] was 0.15 log2. For the same substance, the “Level of intensity of expression in log2 measured with the Agilent chips, D0” value [1] was 8.53 log2, the “Level of intensity of expression in log2 measured with the Agilent chips, D7” value [1] was 9.91 log2 and the “Level of intensity of expression in log2 measured with the Agilent chips, FC” value [1] was 9.34 log2. The “Level of intensity of expression in log2 measured with the Agilent chips, WD” value [1] was 9.48 log2, the “Modulation (ratio of the level of intensity of expression in log2 in two stages of differentiation) measured by high-throughput sequencing, D7 − D0” value [2] was 0.38 log2 and the “Modulation (ratio of the level of intensity of expression in log2 in two stages of differentiation) measured by high-throughput sequencing, FC − D7” value [2] was −0.27 log2. For the same substance, the “Modulation (ratio of the level of intensity of expression in log2 in two stages of differentiation) measured by high-throughput sequencing, WD − D0” value [2] was 0.18 log2, the “Modulation (ratio of the level of intensity of expression in log2 in two stages of differentiation) measured by high-throughput sequencing, WD − FC” value [2] was 0.07 log2 and the “Level of intensity of expression in log2 At the differentiated stage (WD) measured in HTS” value [2] was 7.60 log2. The “Level of intensity of expression in log2 measured by high-throughput sequencing, D0” value [2] was 7.42 log2, the “Level of intensity of expression in log2 measured by high-throughput sequencing, D7” value [2] was 7.80 log2 and the “Level of intensity of expression in log2 measured by high-throughput sequencing, FC” value [2] was 7.53 log2. For the same substance, the “Level of intensity of expression in log2 measured by high-throughput sequencing, WD” value [2] was 7.60 log2, the “Modulation of expression of the miRNAs in pyramidal cells (323(−)) relative to basal cells 323(+)” value [3] was −1.42 and the “Intensity of the level of expression in log2 in basal cells (323(+))” value [3] was 8.24 log2. For the same substance, the “Intensity of the level of expression in log2 in pyramidal cells (323(−))” value [3] was 6.82 log2.
